In the NIST ThermoML archive (doi:10.1016/j.jct.2015.01.004):
Where “and” joins values, the source holds several entries; their conditions need not be identical. Equal values may be shown once.

Assay: molar heat capacity at constant pressure; xn = mol fraction of the nth substance listed
Conditions: 100 kPa

[Si] [silicon] + [Li]
Conditions | molar heat capacity at constant pressure
453.6 K, Crystal of intercomponent compound 1, Small sample (50 mg) DSC, x2 = 0.81 | 25.67 J/K/mol
460 K, Crystal of intercomponent compound 1, relaxation calorimetry + DSC, x2 = 0.81 | 25.6 J/K/mol
460 K, Crystal of intercomponent compound 2, relaxation calorimetry + DSC, x2 = 0.804 | 26.23 J/K/mol
463.31 K, Crystal of intercomponent compound 2, Small sample (50 mg) DSC, x2 = 0.804 | 26.1 J/K/mol and 26.34 J/K/mol
463.5 K, Crystal of intercomponent compound 1, Small sample (50 mg) DSC, x2 = 0.81 | 25.45 J/K/mol
463.51 K, Crystal of intercomponent compound 1, Small sample (50 mg) DSC, x2 = 0.81 | 25.78 J/K/mol
473.22 K, Crystal of intercomponent compound 2, Small sample (50 mg) DSC, x2 = 0.804 | 26.29 J/K/mol and 26.62 J/K/mol
473.42 K, Crystal of intercomponent compound 1, Small sample (50 mg) DSC, x2 = 0.81 | 25.23 J/K/mol
473.43 K, Crystal of intercomponent compound 1, Small sample (50 mg) DSC, x2 = 0.81 | 26 J/K/mol
480 K, Crystal of intercomponent compound 1, relaxation calorimetry + DSC, x2 = 0.81 | 25.91 J/K/mol
480 K, Crystal of intercomponent compound 2, relaxation calorimetry + DSC, x2 = 0.804 | 26.66 J/K/mol
483.13 K, Crystal of intercomponent compound 2, Small sample (50 mg) DSC, x2 = 0.804 | 26.48 J/K/mol and 26.77 J/K/mol
483.33 K, Crystal of intercomponent compound 1, Small sample (50 mg) DSC, x2 = 0.81 | 25.45 J/K/mol
483.34 K, Crystal of intercomponent compound 1, Small sample (50 mg) DSC, x2 = 0.81 | 26.11 J/K/mol
493.04 K, Crystal of intercomponent compound 2, Small sample (50 mg) DSC, x2 = 0.804 | 26.73 J/K/mol and 26.89 J/K/mol
493.24 K, Crystal of intercomponent compound 1, Small sample (50 mg) DSC, x2 = 0.81 | 25.56 J/K/mol
493.26 K, Crystal of intercomponent compound 1, Small sample (50 mg) DSC, x2 = 0.81 | 26.32 J/K/mol
500 K, Crystal of intercomponent compound 1, relaxation calorimetry + DSC, x2 = 0.81 | 26.22 J/K/mol
500 K, Crystal of intercomponent compound 2, relaxation calorimetry + DSC, x2 = 0.804 | 27.09 J/K/mol
502.95 K, Crystal of intercomponent compound 2, Small sample (50 mg) DSC, x2 = 0.804 | 26.84 J/K/mol and 27.04 J/K/mol
503.15 K, Crystal of intercomponent compound 1, Small sample (50 mg) DSC, x2 = 0.81 | 25.78 J/K/mol
503.17 K, Crystal of intercomponent compound 1, Small sample (50 mg) DSC, x2 = 0.81 | 26.43 J/K/mol
512.86 K, Crystal of intercomponent compound 2, Small sample (50 mg) DSC, x2 = 0.804 | 27 J/K/mol and 27.24 J/K/mol
513.06 K, Crystal of intercomponent compound 1, Small sample (50 mg) DSC, x2 = 0.81 | 25.89 J/K/mol
513.08 K, Crystal of intercomponent compound 1, Small sample (50 mg) DSC, x2 = 0.81 | 26.54 J/K/mol
520 K, Crystal of intercomponent compound 1, relaxation calorimetry + DSC, x2 = 0.81 | 26.54 J/K/mol
520 K, Crystal of intercomponent compound 2, relaxation calorimetry + DSC, x2 = 0.804 | 27.52 J/K/mol
522.77 K, Crystal of intercomponent compound 2, Small sample (50 mg) DSC, x2 = 0.804 | 27.23 J/K/mol and 27.49 J/K/mol
522.97 K, Crystal of intercomponent compound 1, Small sample (50 mg) DSC, x2 = 0.81 | 26.11 J/K/mol
522.99 K, Crystal of intercomponent compound 1, Small sample (50 mg) DSC, x2 = 0.81 | 26.76 J/K/mol
532.68 K, Crystal of intercomponent compound 2, Small sample (50 mg) DSC, x2 = 0.804 | 27.46 J/K/mol and 27.67 J/K/mol
532.88 K, Crystal of intercomponent compound 1, Small sample (50 mg) DSC, x2 = 0.81 | 26.21 J/K/mol
532.9 K, Crystal of intercomponent compound 1, Small sample (50 mg) DSC, x2 = 0.81 | 26.98 J/K/mol
540 K, Crystal of intercomponent compound 1, relaxation calorimetry + DSC, x2 = 0.81 | 26.88 J/K/mol
540 K, Crystal of intercomponent compound 2, relaxation calorimetry + DSC, x2 = 0.804 | 27.95 J/K/mol
542.58 K, Crystal of intercomponent compound 2, Small sample (50 mg) DSC, x2 = 0.804 | 27.67 J/K/mol and 27.88 J/K/mol
542.79 K, Crystal of intercomponent compound 1, Small sample (50 mg) DSC, x2 = 0.81 | 26.54 J/K/mol
542.81 K, Crystal of intercomponent compound 1, Small sample (50 mg) DSC, x2 = 0.81 | 27.31 J/K/mol
552.5 K, Crystal of intercomponent compound 2, Small sample (50 mg) DSC, x2 = 0.804 | 27.8 J/K/mol and 28 J/K/mol
552.7 K, Crystal of intercomponent compound 1, Small sample (50 mg) DSC, x2 = 0.81 | 26.76 J/K/mol
552.72 K, Crystal of intercomponent compound 1, Small sample (50 mg) DSC, x2 = 0.81 | 27.53 J/K/mol
560 K, Crystal of intercomponent compound 1, relaxation calorimetry + DSC, x2 = 0.81 | 27.23 J/K/mol
560 K, Crystal of intercomponent compound 2, relaxation calorimetry + DSC, x2 = 0.804 | 28.38 J/K/mol
562.41 K, Crystal of intercomponent compound 2, Small sample (50 mg) DSC, x2 = 0.804 | 27.97 J/K/mol and 28.24 J/K/mol
562.61 K, Crystal of intercomponent compound 1, Small sample (50 mg) DSC, x2 = 0.81 | 27.09 J/K/mol
562.63 K, Crystal of intercomponent compound 1, Small sample (50 mg) DSC, x2 = 0.81 | 27.75 J/K/mol
572.33 K, Crystal of intercomponent compound 2, Small sample (50 mg) DSC, x2 = 0.804 | 28.21 J/K/mol and 28.37 J/K/mol
572.52 K, Crystal of intercomponent compound 1, Small sample (50 mg) DSC, x2 = 0.81 | 27.31 J/K/mol
572.54 K, Crystal of intercomponent compound 1, Small sample (50 mg) DSC, x2 = 0.81 | 27.97 J/K/mol
580 K, Crystal of intercomponent compound 1, relaxation calorimetry + DSC, x2 = 0.81 | 27.6 J/K/mol
580 K, Crystal of intercomponent compound 2, relaxation calorimetry + DSC, x2 = 0.804 | 28.81 J/K/mol
582.24 K, Crystal of intercomponent compound 2, Small sample (50 mg) DSC, x2 = 0.804 | 28.41 J/K/mol and 28.65 J/K/mol
582.43 K, Crystal of intercomponent compound 1, Small sample (50 mg) DSC, x2 = 0.81 | 27.53 J/K/mol
582.45 K, Crystal of intercomponent compound 1, Small sample (50 mg) DSC, x2 = 0.81 | 28.19 J/K/mol
592.15 K, Crystal of intercomponent compound 2, Small sample (50 mg) DSC, x2 = 0.804 | 28.65 J/K/mol and 28.85 J/K/mol
592.34 K, Crystal of intercomponent compound 1, Small sample (50 mg) DSC, x2 = 0.81 | 27.86 J/K/mol
592.36 K, Crystal of intercomponent compound 1, Small sample (50 mg) DSC, x2 = 0.81 | 28.41 J/K/mol
600 K, Crystal of intercomponent compound 1, relaxation calorimetry + DSC, x2 = 0.81 | 28 J/K/mol
600 K, Crystal of intercomponent compound 2, relaxation calorimetry + DSC, x2 = 0.804 | 29.25 J/K/mol
602.06 K, Crystal of intercomponent compound 2, Small sample (50 mg) DSC, x2 = 0.804 | 28.86 J/K/mol and 29.05 J/K/mol
602.26 K, Crystal of intercomponent compound 1, Small sample (50 mg) DSC, x2 = 0.81 | 28.19 J/K/mol
602.27 K, Crystal of intercomponent compound 1, Small sample (50 mg) DSC, x2 = 0.81 | 28.63 J/K/mol
611.97 K, Crystal of intercomponent compound 2, Small sample (50 mg) DSC, x2 = 0.804 | 29.02 J/K/mol and 29.19 J/K/mol
612.17 K, Crystal of intercomponent compound 1, Small sample (50 mg) DSC, x2 = 0.81 | 28.3 J/K/mol
612.18 K, Crystal of intercomponent compound 1, Small sample (50 mg) DSC, x2 = 0.81 | 28.74 J/K/mol
620 K, Crystal of intercomponent compound 1, relaxation calorimetry + DSC, x2 = 0.81 | 28.43 J/K/mol
620 K, Crystal of intercomponent compound 2, relaxation calorimetry + DSC, x2 = 0.804 | 29.68 J/K/mol
621.88 K, Crystal of intercomponent compound 2, Small sample (50 mg) DSC, x2 = 0.804 | 29.19 J/K/mol and 29.48 J/K/mol
622.08 K, Crystal of intercomponent compound 1, Small sample (50 mg) DSC, x2 = 0.81 | 28.41 J/K/mol
622.09 K, Crystal of intercomponent compound 1, Small sample (50 mg) DSC, x2 = 0.81 | 28.96 J/K/mol
631.8 K, Crystal of intercomponent compound 2, Small sample (50 mg) DSC, x2 = 0.804 | 29.46 J/K/mol and 29.65 J/K/mol
631.99 K, Crystal of intercomponent compound 1, Small sample (50 mg) DSC, x2 = 0.81 | 28.74 J/K/mol
632.01 K, Crystal of intercomponent compound 1, Small sample (50 mg) DSC, x2 = 0.81 | 29.07 J/K/mol
640 K, Crystal of intercomponent compound 1, relaxation calorimetry + DSC, x2 = 0.81 | 28.9 J/K/mol
640 K, Crystal of intercomponent compound 2, relaxation calorimetry + DSC, x2 = 0.804 | 30.11 J/K/mol
641.71 K, Crystal of intercomponent compound 2, Small sample (50 mg) DSC, x2 = 0.804 | 29.67 J/K/mol and 29.92 J/K/mol
641.89 K, Crystal of intercomponent compound 1, Small sample (50 mg) DSC, x2 = 0.81 | 28.96 J/K/mol
641.92 K, Crystal of intercomponent compound 1, Small sample (50 mg) DSC, x2 = 0.81 | 29.29 J/K/mol
651.63 K, Crystal of intercomponent compound 2, Small sample (50 mg) DSC, x2 = 0.804 | 29.86 J/K/mol and 30.21 J/K/mol
651.81 K, Crystal of intercomponent compound 1, Small sample (50 mg) DSC, x2 = 0.81 | 29.07 J/K/mol
651.84 K, Crystal of intercomponent compound 1, Small sample (50 mg) DSC, x2 = 0.81 | 29.51 J/K/mol
